The test system of this assay is BDF1 mice, colon carcinoma 38 sc, T/C %. Briefly: NCI In Vivo Anticancer Drug Screen. Data for tumor model Colon Carcinoma 38 (subcutaneous) in B6D2F1 (BDF1) mice. The procedure, abridged:
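T/C readout: treated group (T) measurement over vehicle control group (C) measurement. Endpoint is survival or tumor size in mice bearing a transplanted tumor.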

Molecules are shown by their SMILES. Several values for one entry are separate records, joined by “and”; a condition that tells them apart may be missing. Equal entries are not always repeated. Results filed as inconclusive are left out. Where a SMILES comes first, the peptide text is derived from it. Bridges are numbered along the chain shown (N, C = ends).

Regarding `Nc1ccc2c(c1)CN1C(=O)c3ccccc3C1=N2`, the T/C (endpoint: median survival time, dose: 60.0 mg/kg/injection, schedule: Q07DX002 (oral), vehicle: saline with Tween-80, higher = longer survival) is 96 % of control; the T/C (endpoint: median survival time, dose: 100.0 mg/kg/injection, schedule: Q01DX008 (oral), vehicle: saline with Tween-80, higher = longer survival) was 103 % of control; the T/C (endpoint: median survival time, dose: 200.0 mg/kg/injection, schedule: Q01DX008 (oral), vehicle: saline with Tween-80, higher = longer survival) is 96 % of control; the T/C (endpoint: median survival time, dose: 800.0 mg/kg/injection, schedule: Q07DX002 (oral), vehicle: saline with Tween-80, higher = longer survival) was 90 % of control; the T/C (endpoint: median survival time, dose: 1000.0 mg/kg/injection, schedule: Q07DX002 (oral), vehicle: saline with Tween-80, higher = longer survival) is 97 % of control; the T/C (endpoint: median tumor weight (est.), dose: 50.0 mg/kg/injection, schedule: Q07DX002 (ip), vehicle: DMSO, higher = larger tumour) was 50 % of control. In addition, the T/C (endpoint: median tumor weight (est.), dose: 100.0 mg/kg/injection, schedule: Q07DX002 (ip), vehicle: other, higher = larger tumour) was 13 % of control; the T/C (endpoint: median tumor weight (est.), dose: 103.7 mg/kg/injection, schedule: Q01DX005 (oral), vehicle: saline with Tween-80, higher = larger tumour) was 52 % of control; the T/C (endpoint: median tumor weight (est.), dose: 129.6 mg/kg/injection, schedule: Q06HX004 (oral), vehicle: saline with Tween-80, higher = larger tumour) was 26 % of control; the T/C (endpoint: median tumor weight (est.), dose: 172.8 mg/kg/injection, schedule: Q01DX005 (oral), vehicle: saline with Tween-80, higher = larger tumour) is 52 % of control; the T/C (endpoint: median tumor weight (est.), dose: 200.0 mg/kg/injection, schedule: Q07DX002 (oral), vehicle: saline with Tween-80, higher = larger tumour) was 27 % of control; the T/C (endpoint: median tumor weight (est.), dose: 216.0 mg/kg/injection, schedule: Q06HX004 (oral), vehicle: saline with Tween-80, higher = larger tumour) is 16 % of control. Further, the T/C runs as follows: (endpoint: median tumor weight (est.), dose: 288.0 mg/kg/injection, schedule: Q01DX005 (oral), vehicle: saline with Tween-80, higher = larger tumour) 7 % of control; (endpoint: median tumor weight change, dose: 70.4 mg/kg/injection, schedule: Q01DX009 (oral), vehicle: saline with Tween-80, higher = larger tumour) 13 % of control; (endpoint: median tumor weight change, dose: 105.6 mg/kg/injection, schedule: Q01DX005 (oral), vehicle: saline with Tween-80, higher = larger tumour) 68 % of control; (endpoint: median tumor weight change, dose: 105.6 mg/kg/injection, schedule: Q01DX009 (oral), vehicle: saline with Tween-80, higher = larger tumour) 42 % of control; (endpoint: median tumor weight change, dose: 158.3 mg/kg/injection, schedule: Q01DX005 (oral), vehicle: saline with Tween-80, higher = larger tumour) -5 % of control; (endpoint: median tumor weight change, dose: 158.3 mg/kg/injection, schedule: Q01DX009 (oral), vehicle: saline with Tween-80, higher = larger tumour) -40 % of control. Further, the T/C is, setting by setting: (endpoint: median tumor weight change, dose: 158.3 mg/kg/injection, schedule: Q06HX002 (oral), vehicle: saline with Tween-80, higher = larger tumour) 71 % of control; (endpoint: median tumor weight change, dose: 158.3 mg/kg/injection, schedule: Q06HX004 (oral), vehicle: saline with Tween-80, higher = larger tumour) 60 % of control; (endpoint: median tumor weight change, dose: 158.3 mg/kg/injection, schedule: Q07DX003 (oral), vehicle: saline with Tween-80, higher = larger tumour) 24 % of control; (endpoint: median tumor weight change, dose: 237.0 mg/kg/injection, schedule: Q08DX002 (oral), vehicle: saline with Tween-80, higher = larger tumour) 33 % of control; (endpoint: median tumor weight change, dose: 237.4 mg/kg/injection, schedule: Q01DX005 (oral), vehicle: saline with Tween-80, higher = larger tumour) -60 % of control; (endpoint: median tumor weight change, dose: 237.4 mg/kg/injection, schedule: Q06HX002 (oral), vehicle: saline with Tween-80, higher = larger tumour) 37 % of control. Moreover, the T/C (endpoint: median tumor weight change, dose: 237.4 mg/kg/injection, schedule: Q06HX004 (oral), vehicle: saline with Tween-80, higher = larger tumour) is 36 % of control; the T/C (endpoint: median tumor weight change, dose: 237.4 mg/kg/injection, schedule: Q07DX002 (oral), vehicle: saline with Tween-80, higher = larger tumour) is 80 % of control; the T/C (endpoint: median tumor weight change, dose: 237.4 mg/kg/injection, schedule: Q07DX003 (oral), vehicle: saline with Tween-80, higher = larger tumour) is 69 % of control; the T/C (endpoint: median tumor weight change, dose: 355.9 mg/kg/injection, schedule: Q01DX001 (oral), vehicle: saline with Tween-80, higher = larger tumour) is 68 % of control; the T/C (endpoint: median tumor weight change, dose: 355.9 mg/kg/injection, schedule: Q01DX005 (oral), vehicle: saline with Tween-80, higher = larger tumour) was -88 % of control; the T/C (endpoint: median tumor weight change, dose: 355.9 mg/kg/injection, schedule: Q06HX002 (oral), vehicle: saline with Tween-80, higher = larger tumour) is 48 % of control and 66 % of control. Moreover, the T/C (endpoint: median tumor weight change, dose: 355.9 mg/kg/injection, schedule: Q06HX004 (oral), vehicle: saline with Tween-80, higher = larger tumour) was -13 % of control; the T/C (endpoint: median tumor weight change, dose: 355.9 mg/kg/injection, schedule: Q07DX002 (oral), vehicle: saline with Tween-80, higher = larger tumour) is 23 % of control; the T/C (endpoint: median tumor weight change, dose: 355.9 mg/kg/injection, schedule: Q07DX003 (oral), vehicle: saline with Tween-80, higher = larger tumour) is 55 % of control; the T/C (endpoint: median tumor weight change, dose: 355.9 mg/kg/injection, schedule: Q08DX002 (oral), vehicle: saline with Tween-80, higher = larger tumour) is 33 % of control; the T/C (endpoint: median tumor weight change, dose: 533.6 mg/kg/injection, schedule: Q01DX001 (oral), vehicle: saline with Tween-80, higher = larger tumour) was 66 % of control; the T/C (endpoint: median tumor weight change, dose: 533.6 mg/kg/injection, schedule: Q06HX002 (oral), vehicle: saline with Tween-80, higher = larger tumour) is -46 % of control and -38 % of control. The T/C by setting is: (endpoint: median tumor weight change, dose: 533.6 mg/kg/injection, schedule: Q06HX004 (oral), vehicle: saline with Tween-80, higher = larger tumour) -50 % of control; (endpoint: median tumor weight change, dose: 533.6 mg/kg/injection, schedule: Q07DX002 (oral), vehicle: saline with Tween-80, higher = larger tumour) 52 % of control; (endpoint: median tumor weight change, dose: 533.6 mg/kg/injection, schedule: Q07DX003 (oral), vehicle: saline with Tween-80, higher = larger tumour) 34 % of control; (endpoint: median tumor weight change, dose: 533.6 mg/kg/injection, schedule: Q08DX002 (oral), vehicle: saline with Tween-80, higher = larger tumour) 34 % of control; (endpoint: median tumor weight change, dose: 800.0 mg/kg/injection, schedule: Q01DX001 (oral), vehicle: saline with Tween-80, higher = larger tumour) 47 % of control; (endpoint: median tumor weight change, dose: 800.0 mg/kg/injection, schedule: Q06HX002 (oral), vehicle: saline with Tween-80, higher = larger tumour) -87 % of control and -85 % of control. Moreover, the T/C is -99 % of control (endpoint: median tumor weight change, dose: 800.0 mg/kg/injection, schedule: Q06HX004 (oral), vehicle: saline with Tween-80, higher = larger tumour); 1 % of control (endpoint: median tumor weight change, dose: 800.0 mg/kg/injection, schedule: Q07DX002 (oral), vehicle: saline with Tween-80, higher = larger tumour); -10 % of control (endpoint: median tumor weight change, dose: 800.0 mg/kg/injection, schedule: Q07DX003 (oral), vehicle: saline with Tween-80, higher = larger tumour); -14 % of control (endpoint: median tumor weight change, dose: 800.0 mg/kg/injection, schedule: Q08DX002 (oral), vehicle: saline with Tween-80, higher = larger tumour); 39 % of control (endpoint: median tumor weight change, dose: 1199.4 mg/kg/injection, schedule: Q01DX001 (oral), vehicle: saline with Tween-80, higher = larger tumour); -36 % of control (endpoint: median tumor weight change, dose: 1199.4 mg/kg/injection, schedule: Q08DX002 (oral), vehicle: saline with Tween-80, higher = larger tumour).

Turning to `CCNC(=O)OCc1c(COC(=O)NCC)c(-c2ccc(Cl)c(Cl)c2)n2c1CCC2`, the T/C is 74 % of control (endpoint: median tumor weight (est.), dose: 3.12 mg/kg/injection, schedule: Q07DX002 (ip), vehicle: saline, higher = larger tumour); 104 % of control (endpoint: median tumor weight (est.), dose: 6.25 mg/kg/injection, schedule: Q07DX002 (ip), vehicle: saline, higher = larger tumour); 86 % of control (endpoint: median tumor weight (est.), dose: 12.5 mg/kg/injection, schedule: Q07DX002 (ip), vehicle: saline, higher = larger tumour); 62 % of control (endpoint: median tumor weight (est.), dose: 25.0 mg/kg/injection, schedule: Q07DX002 (ip), vehicle: saline, higher = larger tumour); 42 % of control (endpoint: median tumor weight (est.), dose: 50.0 mg/kg/injection, schedule: Q07DX002 (ip), vehicle: saline, higher = larger tumour).

Consider `CC1(C)OC1CS(=O)c1ccccc1` (centres undefined), for which the T/C is 110 % of control (endpoint: median tumor weight (est.), dose: 25.0 mg/kg/injection, schedule: Q07DX002 (ip), vehicle: saline with Tween-80, higher = larger tumour); 105 % of control (endpoint: median tumor weight (est.), dose: 50.0 mg/kg/injection, schedule: Q07DX002 (ip), vehicle: saline with Tween-80, higher = larger tumour); 92 % of control (endpoint: median tumor weight (est.), dose: 100.0 mg/kg/injection, schedule: Q07DX002 (ip), vehicle: saline with Tween-80, higher = larger tumour); 86 % of control (endpoint: median tumor weight (est.), dose: 200.0 mg/kg/injection, schedule: Q07DX002 (ip), vehicle: saline with Tween-80, higher = larger tumour); 105 % of control (endpoint: median tumor weight (est.), dose: 400.0 mg/kg/injection, schedule: Q07DX002 (ip), vehicle: saline with Tween-80, higher = larger tumour); 76 % of control (endpoint: median tumor weight (est.), dose: 800.0 mg/kg/injection, schedule: Q07DX002 (ip), vehicle: saline with Tween-80, higher = larger tumour).

Regarding `CCC(C)C1NC(=O)C(CC(C)C)NC(=O)C(C(C)C)NC(=O)C2CSSCC(NC1=O)C(=O)N2` (centres undefined) (cyclo(CCVLI); disulfide 1-2; configuration not given here), the T/C is 160 % of control (endpoint: median tumor weight (est.), dose: 128.12 micrograms/kg/injection, schedule: Q07DX002 (ip), vehicle: Klucel (hydroxypropylcellulose) (HPC), higher = larger tumour) and 118 % of control (endpoint: median tumor weight (est.), dose: 256.25 micrograms/kg/injection, schedule: Q07DX002 (ip), vehicle: Klucel (hydroxypropylcellulose) (HPC), higher = larger tumour).

As to `N#CCCN(C(=S)Nc1cccc(C(F)(F)F)c1)C1CCCCC1`, the T/C is, setting by setting: (endpoint: median tumor weight (est.), dose: 50.0 mg/kg/injection, schedule: Q07DX002 (ip), vehicle: Klucel (hydroxypropylcellulose) (HPC), higher = larger tumour) 67 % of control and 71 % of control; (endpoint: median tumor weight (est.), dose: 200.0 mg/kg/injection, schedule: Q07DX002 (ip), vehicle: Klucel (hydroxypropylcellulose) (HPC), higher = larger tumour) 76 % of control and 80 % of control and 88 % of control; (endpoint: median tumor weight (est.), dose: 800.0 mg/kg/injection, schedule: Q07DX002 (ip), vehicle: Klucel (hydroxypropylcellulose) (HPC), higher = larger tumour) 79 % of control and 92 % of control.

(Values after PubChem BioAssay AID212 (DTP/NCI, 2004).)
